Substitutions are numbered along the chain they refer to.
Key:
Type in all cases: biochemical, murine
[1] = target: T1, wild type mCOX-2 (Mus musculus, UniProt Q05769); assay: Kinetics of time-dependent COX inhibition
T1 construct: made in house; host or cells: Sf9 insect cells (baculovirus, pVL1393)
T1 sequence (Q05769 18-604): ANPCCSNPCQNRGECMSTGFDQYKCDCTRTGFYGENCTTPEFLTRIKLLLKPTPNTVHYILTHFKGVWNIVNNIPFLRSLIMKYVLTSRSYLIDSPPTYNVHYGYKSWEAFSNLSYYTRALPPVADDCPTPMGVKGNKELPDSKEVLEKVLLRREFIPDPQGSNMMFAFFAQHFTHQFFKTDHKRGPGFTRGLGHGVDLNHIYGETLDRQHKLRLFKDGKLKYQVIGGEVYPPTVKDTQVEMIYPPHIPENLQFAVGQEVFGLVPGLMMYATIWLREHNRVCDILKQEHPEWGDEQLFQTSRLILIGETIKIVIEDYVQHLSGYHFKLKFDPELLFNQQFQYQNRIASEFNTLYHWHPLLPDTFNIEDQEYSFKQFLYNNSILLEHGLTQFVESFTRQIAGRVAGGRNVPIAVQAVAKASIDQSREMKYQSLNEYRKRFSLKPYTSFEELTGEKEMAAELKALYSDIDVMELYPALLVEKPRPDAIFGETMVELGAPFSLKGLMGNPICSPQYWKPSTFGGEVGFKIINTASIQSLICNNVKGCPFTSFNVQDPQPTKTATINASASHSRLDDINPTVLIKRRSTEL
Method: (§1) Assays were terminated and analyzed for substrate consumption by thin layer chromatography. […] Time-dependent COX inhibition reactions were pre-incubated at 37° C. for varying lengths of time (0-30 minutes) with various concentrations of inhibitor. All reactions were performed with [1-^14C]-AA for 30 seconds at 37° C.; reactions were terminated and analyzed as described above.
(§2) To ensure that pseudo-first-order conditions were maintained, the enzymatic oxygenation reactions were terminated after 30 seconds to prevent extensive consumption of substrate. The decline of substrate conversion at different INDO concentrations was plotted against the pre-incubation times and fit to a single exponential decay with a plateau to determine kobs (FIG. 2).
(§3) The rate constant k2 represents the limiting forward rate constant for functionally irreversible inhibition, and KI corresponds to the inhibitor concentration that yields a rate equal to half of the limiting rate.

[2] = target: T2, mCOX-2^V349L (Mus musculus, UniProt Q05769, V335L); assay: Kinetics of time-dependent COX inhibition
T2 construct: made in house; host or cells: Sf9 insect cells (baculovirus, pVL1393)
T2 sequence (Q05769 18-604 V335L): T1 sequence (Q05769 18-604) with V318L
Method: as §1, §2, §3

[3] = target: T1, wild type mCOX-2; assay: Activity recovery assay (reversibility of COX inhibition); conditions: 10 μM inhibitor, 50 μM AA
Method: (§4) The reversibility of the second step in equation (1) could be directly evaluated by the amount of enzyme activity recovered after a prolonged incubation time with substrate. […] The enzymes were pre-incubated for 20 minutes with DMSO or 10 μM INDO, prior to the addition of 50 μM AA. After addition of AA, the oxygenation reactions were allowed to proceed for varying lengths of time. As the reaction time increased, the extent of inhibition decreased if INDO binding was reversible. The time course for recovery of AA oxygenation was fit to a single exponential (FIG. 3A).
(§5) The reversibility of DM-INDO inhibition was evaluated similarly to INDO using the activity recovery assay (FIG. 3). The experiments and analysis were performed as described above.

[4] = target: T3, mCOX-2^V349I (Mus musculus, UniProt Q05769, V335I); assay: as above; conditions: 10 μM inhibitor, 50 μM AA
T3 construct: made in house; host or cells: Sf9 insect cells (baculovirus, pVL1393)
T3 sequence (Q05769 18-604 V335I): T1 sequence (Q05769 18-604) with V318I
Method: as §4, §5

## COc1ccc2c(c1)c(CC(=O)O)cn2C(=O)c1ccc(Cl)cc1 [DM-INDO, 2-Des-methylindomethacin]
[1]
  off-rate constant slower than the on-rate: 14 fold
  remaining activity approached (plateau) in time-dependent inhibition curves: about 30%
[1]; DM-INDO versus INDO
  on-rate constant (k2) faster than for INDO: 14 fold
[1]; time-dependent inhibition
  Ki: 26 ± 7 µM
  k2: 0.80 ± 0.03 s⁻¹
  k−2: 0.05 ± 0.02 s⁻¹
[2]; V349L
  remaining activity approached (plateau) in time-dependent inhibition curves: about 30%
[2]; V349L versus wild type mCOX-2
  higher concentrations required for V349L to achieve similar inhibition as wild type mCOX-2: ~10 fold
[2]; V349L, graph did not plateau, linear regression
  k−2 (y-intercept of linear regression analysis): 0.0025 ± 0.0003 s⁻¹
[3]
  K−2^b (rate constant determined by reversible inhibition): 0.023 ± 0.001 s⁻¹
[4]
  K−2^b (rate constant determined by reversible inhibition): 0.015 ± 0.005 s⁻¹
